Experimental data reported in patent publication US5217997A, “Use of L-arginine in the treatment of hypertension and other vascular disorders” (priority 1992, dated 1993).
Entries after “also recorded” stand apart in the source; their conditions may differ. Read-outs that look alike come from different tables or passages of the source.

Assays:
[1] = test system: renal cytochrome P-450; settings: in vivo; cited from earlier work
[2] = test system: spontaneous hypertensive rats; settings: young SHR; cited from earlier work
[3] = test system: spontaneous hypertensive rats; assay: Systolic blood pressure in 7-week-old SHR, heme vs. arginine component and heme oxygenase inhibitor (Table 3); assay type: in vivo, rat; settings: for reduction of blood pressure: "same dose (15 mg/kg body weight)", control increased by 7.7 mmHg; for Systolic blood pressure, after treatment: n=5, 4 days, heme-L-arginate = 15 mg hemin + 16 mg L-arginine per kg, hemin 15, L-arginine 16, ZnDPBG 7 mg/kg, 23 hours after last injection, *p<0.005 vs control 166.0±2.7; for Systolic blood pressure, after treatment / Systolic blood pressure, before treatment: ±SD; for Systolic blood pressure, before treatment: n=5, baseline
Method: Applicants further examined whether the effect is due to heme or to the arginine component of heme arginate. In separate experiments, applicants treated 7-week-old spontaneous hypertensive rats with heme-L-arginate, hemin alone and L-arginine alone at the same dose (15 mg/kg body weight). […] At the same period, blood pressure in control spontaneous hypertensive rats increased by 7.7 mmHg.
Systolic blood pressure was measured by tail cuff pletysmograph before and 23 hours after the last injection. Results are the same ±SD, n=5 in each group; significance from control spontaneous hypertensive rats after 4 days of treatment with the vehicle (166.0±2.7), *p<0.005.

[4] = test system: spontaneous hypertensive rats; assay: Tail blood pressure of 7-week-old spontaneous hypertensive rats after L- or D-arginine hydrochloride (Example 1); assay type: in vivo, rat
Method: (§1) Male spontaneous hypertensive rats and Wistar Kyoto rats were purchased from Charles River (Wilmington, Mass.) and were fed and housed under identical conditions for at least five days before use. The rats were caged in groups of three with food and water ad libitum under an artificial light-dark cycle of twelve hours.
(§2) L- and D-arginine hydrochloride were obtained from Aldrich (Milwaukee, Wis.). Forty-five-day-old spontaneous hypertensive rats were injected with L-arginine hydrochloride, 5, 16, 50, 80, 100 and 500 mg/kg body weight, or D-arginine-hydrochloride, 80 and 100 mg/kg body weight, intraperitoneally,in a final volume of 1.0 ml buffered saline for four consecutive days. The control spontaneous hypertensive rats and Wistar Kyoto rats were injected with saline. Forty-five day old Wistar Kyoto strain rats were injected with 50 mg/kg body weight of L-arginine hydrochloride for four days. Each group consisted of four or five experimental animals. Blood pressure from the tail was measured before the first injection and twenty-four hours after the last arginine administration. Blood pressure was measured with anesthesia, using a pletysmograph.
(§3) Results are expressed as the means ±SEM. A two-way analysis of variance was performed to compare blood values between control, L-arginine and D-arginine treated spontaneous hypertensive rats. Specific differences between groups were tested by the Newman-Keuls test. The null hypothesis was rejected when the p value was less than 0.05.
(§4) The blood pressure of 7-week-old spontaneous hypertensive rats and Wistar Kyoto rats was monitored before and after administration of L- and D-arginine. […] At a dose as low as 16 mg/kg body weight, L-arginine lowered blood pressure by 10 mm Hg […].

[5] = test system: Wistar Kyoto rats; assay: Tail blood pressure of age-matched Wistar Kyoto rats after L- or D-arginine hydrochloride (Example 1); assay type: in vivo, rat; settings: for effect on blood pressure: age-matched normotensive Wistar Kyoto rats
Method: as §1, §2, §3, §4
For example, blood pressure of 7-week-old Wistar Kyoto rats remained unchanged following four days of treatment with L-arginine (50 mg/kg body weight), 122.3±1.3 mm Hg vs. 124.5±1.7 mm Hg for control and treated, respectively, n=3.

[6] = test system: anesthetized rabbit; settings: cited from earlier work

## [Cl][Sn][Cl] [SnCl2]
[1]
  effect on renal cytochrome P-450: depletion of renal cytochrome P-450
[2]
  effect on blood pressure: marked decrease in blood pressure

## N=C(N)NCCC[C@H](N)C(=O)O [L-arginine, 2-amino-5-guanidinovaleric acid]
[3]
  reduction of blood pressure: 9.7 mmHg
  Systolic blood pressure, after treatment: 144.4 ± 3.0 mmHg
  Systolic blood pressure, before treatment: 154.1 ± 4.5 mmHg
[4]; 16 mg/kg body weight i.p., four consecutive days, 7-week-old SHR
  decrease in blood pressure: 10 mm Hg
[4]; 100 mg/kg body weight (maximal dose) i.p., four days, 7-week-old SHR
  maximal effect, decrease in blood pressure: 30 mm Hg
[4]; 5-500 mg/kg i.p., four days, 7-week-old SHR
  effect on blood pressure: dose-dependent decrease in blood pressure
[4]; at the maximal dose, young SHR
  overall reduction of blood pressure: 20%
[4]; doses higher than 100 mg/kg, 7-week-old SHR
  effect on blood pressure of higher doses: did not lower blood pressure further
[5]; 50 mg/kg body weight, four days, 7-week-old WKY, n=3, ±SEM, control 122.3±1.3
  blood pressure, treated: 124.5±1.7 mm Hg
[5]
  effect on blood pressure: Neither L-arginine nor D-arginine had any effect on blood pressure; also recorded: no effect was documented in normotensive rats
[6]; L-arginine administration
  effect on the inhibition of N-monomethyl-L-arginine: abolished the inhibition of N-monomethyl-L-arginine within fifteen minutes

## CN=C(N)NCCC[C@H](N)C(=O)O [N-monomethyl-L-arginine]
[6]
  effect on mean arterial blood pressure: dose-dependent increase in mean arterial blood pressure

## Hemin
[3]
  reduction of blood pressure: 14.3 mmHg
  Systolic blood pressure, after treatment: 142.2 ± 2.4 mmHg
  Systolic blood pressure, before treatment: 156.5 ± 3.3 mmHg

## N=C(N)NCCC[C@@H](N)C(=O)O [D-arginine]
[4]; 80 and 100 mg/kg body weight, four days, 7-week-old SHR
  effect on blood pressure: did not effect the blood pressure; also recorded: had no effect on blood pressure
[4]; concentrations lower than 80 mg/kg body weight, SHR
  effect on blood pressure: did not alter blood pressure
[5]
  effect on blood pressure: Neither L-arginine nor D-arginine had any effect on blood pressure

## Zn-2,4-deuteropophyrin IX bis glycol [ZnDPBG]
[3]; inhibitor alone
  effect on blood pressure: did not have any effect on blood pressure
[3]
  Systolic blood pressure, after treatment: 169.1 ± 2.5 mmHg
  Systolic blood pressure, before treatment: 154.0 ± 4.0 mmHg
